The results in this text go back to US7683176B2, “Triazolyl pyridyl benzenesulfonamides” (ChemoCentryx, Inc., priority 2006, dated 2010).

Bounds are passed on as bounds.

The test addresses T1, CCR9 (Homo sapiens, UniProt P51686).
T1 construct: chemokine expressing cells (such as THP-1 cells for CCR2 assay or MOLT-4 cells for CCR9 assay); host or cells: MOLT-4
T1 sequence (P51686 1-369): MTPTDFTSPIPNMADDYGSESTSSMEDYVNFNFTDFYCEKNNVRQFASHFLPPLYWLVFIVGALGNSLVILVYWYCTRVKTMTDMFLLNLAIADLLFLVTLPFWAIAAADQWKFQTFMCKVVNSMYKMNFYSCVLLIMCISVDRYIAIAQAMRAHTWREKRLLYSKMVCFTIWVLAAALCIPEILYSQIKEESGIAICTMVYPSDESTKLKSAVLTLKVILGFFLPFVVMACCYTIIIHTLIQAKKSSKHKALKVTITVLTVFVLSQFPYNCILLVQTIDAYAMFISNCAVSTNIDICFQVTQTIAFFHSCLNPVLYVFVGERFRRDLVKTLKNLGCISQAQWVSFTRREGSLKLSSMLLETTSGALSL
The test is described as follows: CCR9 activity in one of the chemotaxis, binding or calcium mobilization assays. Format: cell-based. Particulars: binding or calcium mobilization assays (MOLT-4 cells, TECK). How it is done:
THP-1 cells and MOLT-4 cells were obtained from the American Type Culture Collection (Manassas, Va.) and cultured in RPMI tissue culture medium supplemented with 10% fetal calf serum (FCS) in a humidified 5% CO2 incubator at 37° C. Recombinant human chemokine proteins MCP-1 and TECK were obtained from R&D Systems (Minneapolis, Minn.). ^125I-labeled MCP-1 protein was obtained from Amersham (Piscataway, N.J.). ChemoTX® chemotaxis microchambers were purchased from Neuro Probe (Gaithersburg, Md.). CyQUANT® cell proliferation kits were purchased from Molecular Probes (Eugene, Oreg.). Calcium indicator dye Fluo-4 AM was purchased from Molecular Devices (Mountain View, Calif.).
Conventional migration assay was used to determine the efficacy of potential receptor antagonists in blocking migration mediated through chemokines (such as CCR2 or CCR9). This assay was routinely performed using the ChemoTX® microchamber system with a 5-μm pore-sized polycarbonate membrane. To begin such an assay, chemokine expressing cells (such as THP-1 cells for CCR2 assay or MOLT-4 cells for CCR9 assay) were harvested by centrifugation of cell suspension at 1000 RPM on a GS-6R Beckman centrifuge. The cell pellet was resuspended in chemotaxis buffer (HBSS with 0.1% BSA) at 10×10^6 cells/mL for CCR2 assay (5×10^6 cells/mL for CCR9 assay). Test compounds at desired concentrations were prepared from 10 mM stock solutions by serial dilutions in chemotaxis buffer. An equal volume of cells and compounds were mixed and incubated at room temperature for 15 minutes. Afterwards, 20 μL of the mixture was transferred onto the porous membrane of a migration microchamber, with 29 μL of chemokine ligand (0.1 nM chemokine MCP-1 protein for CCR2 assay or […] chemokine TECK protein for CCR9 assay) placed at the lower chamber. Following an incubation at 37° C. (90-minute for CCR2; 150-minute for CCR9), during which cells migrated […] the chemokine gradient, the assay was terminated by removing the cell drops from atop the filter. To quantify cells migrated across the membrane, 5 μL of 7× CyQUANT® solution was added to each well in the lower chamber, and the fluorescence signal measured on a Spectrafluor Plus fluorescence plate reader (TECAN, Durham, N.C.). The degree of inhibition was determined by comparing migration signals between compound-treated and untreated cells. IC50 calculation was further performed by non-linear squares regression analysis using Graphpad Prism (Graphpad Software, San Diego, Calif.).
Calcium flux assay measures an increase in intracellular calcium following ligand-induced receptor activation. In the screen of chemokine antagonists, it was used as a secondary assay carried out on a FLIPR® machine (Molecular Devices, Mountain View, Calif.). To begin an assay, chemokine expressing cells (such as THP-1 cells for CCR2 assay or MOLT-4 cells for CCR9 assay) were harvested by centrifugation of cell suspension, and resuspended to 1.5×10^6 cells/mL in HBSS (with 1% fetal calf serum). Cells were then labeled with a calcium indicator dye Fluo-4 AM for 45 minutes at 37° C. with gentle shaking. Following incubation, cells were pelletted, washed once with HBSS and resuspended in the same buffer at a density of 1.6×10^6 cells/mL. One hundred microliters of labeled cells were mixed with 10 μL of test compound at the appropriate concentrations on an assay plate. Chemokine protein (MCP-1 at a final concentration of 0.1 nM for CCR2 assay or TECK at a final concentration of 25 nM for CCR9 assay) to activate the receptor. The degree of inhibition was determined by comparing calcium signals between compound-treated and untreated cells. IC50 calculations were further performed by non-linear squares regression analysis using Graphpad Prism (Graphpad Software, San Diego, Calif.).

In the case of `Cn1c(-c2ccno2)nnc1-c1ncc(Cl)cc1NS(=O)(=O)c1ccc(C(C)(C)C)cc1`, the half-maximal inhibitory concentration (IC50) was < 1 µM.
The result for `CCn1c(C)nnc1-c1ncc(Cl)cc1NS(=O)(=O)c1ccc(C(C)(C)C)cc1` reads < 1 µM; that for `Cn1c(-c2cccnc2)nnc1-c1ncc(Cl)cc1NS(=O)(=O)c1ccc(C(C)(C)C)cc1`, < 1 µM; that for `Cc1cnc(-c2nncn2C2CCN(C(=O)OC(C)(C)C)C2)c(NS(=O)(=O)c2ccc(C(C)(C)C)cc2)c1` (centres unmarked), < 1 µM.
As to `CC(C)(C)c1ccc(S(=O)(=O)Nc2cc(Cl)cnc2-c2nnc3n2CCOC3)cc1`, the half-inhibitory concentration (IC50) was < 1 µM.
To `CC(C)(C)c1ccc(S(=O)(=O)Nc2cc(Cl)cnc2-c2nncn2-c2ccccc2F)cc1` belongs < 1 µM.
To `COCc1nnc(-c2ncc(Cl)cc2NS(=O)(=O)c2ccc(C(C)(C)C)cc2)n1C` belongs < 1 µM.
As to `Cn1c(-c2ncc(Cl)cc2NS(=O)(=O)c2ccc(C(C)(C)C)cc2)nnc1C1CCCN1` (centres unmarked), the 50% inhibitory concentration (IC50) is < 1 µM.
With `CC(C)n1c(N)nnc1-c1ncc(Cl)cc1NS(=O)(=O)c1ccc(C(C)(C)C)cc1`, the IC50 is < 1 µM.
`Cn1c(-c2ccncc2)nnc1-c1ncc(Cl)cc1NS(=O)(=O)c1ccc(C(C)(C)C)cc1`: the 50% inhibitory concentration (IC50) was < 1 µM.
With `CC(C)c1nnc(-c2ncc(Cl)cc2NS(=O)(=O)c2ccc(C(C)(C)C)cc2)n1C`, the IC50 is < 1 µM.
Consider `Cc1nnc(-c2ncc(Cl)cc2NS(=O)(=O)c2ccc(C(C)(C)C)cc2)n1C(C)C`, for which the concentration for half-maximal inhibition (IC50) was < 1 µM.
For `CC(C)n1c(C(=O)N(C)C)nnc1-c1ncc(Cl)cc1NS(=O)(=O)c1ccc(C(C)(C)C)cc1`, the IC50 is < 1 µM.
To `CC(C)n1c(-c2ncc(Cl)cc2NS(=O)(=O)c2ccc(C(C)(C)C)cc2)nnc1C(C)(C)O` belongs < 1 µM; to `Cc1cnc(-c2nncn2C2CCNC2)c(NS(=O)(=O)c2ccc(C(C)(C)C)cc2)c1` (centres unmarked), < 1 µM.
For the compound `CCOC(=O)c1nnc(-c2ncc(Cl)cc2NS(=O)(=O)c2ccc(C(C)(C)C)cc2)n1C(C)C`, the IC50 is < 1 µM.
The result for `Cn1c(-c2ncc(Cl)cc2NS(=O)(=O)c2ccc(C(C)(C)C)cc2)nnc1C1CCNCC1` reads < 1 µM; that for `CC(=O)Nc1nnc(-c2ncc(Cl)cc2NS(=O)(=O)c2ccc(C(C)(C)C)cc2)n1C(C)C`, < 1 µM.
As to `CCn1cnnc1-c1ncc(Cl)cc1NS(=O)(=O)c1ccc(C(C)(C)C)cc1`, the IC50 was < 1 µM.
To `Cc1nnc(-c2ncc(Cl)cc2NS(=O)(=O)c2ccc(C(C)(C)C)cc2)n1C` belongs < 1 µM; to `Cc1nnc(-c2ncc(Cl)cc2NS(=O)(=O)c2ccc(C(C)(C)C)cc2)n1C1CC1`, < 1 µM.
With `CC(C)(C)c1ccc(S(=O)(=O)Nc2cc(Cl)cnc2-c2nncn2[C@H]2CCNC2)cc1`, the concentration for half-maximal inhibition (IC50) was < 1 µM.
`CC(C)(C)c1ccc(S(=O)(=O)Nc2cc(Cl)cnc2-c2nncn2-c2ccccc2)cc1`: the half-maximal inhibitory concentration (IC50) is < 1 µM.
The result for `CC(C)n1cnnc1-c1ncc(Cl)cc1NS(=O)(=O)c1ccc(C(C)(C)C)cc1` reads < 1 µM; that for `CC(C)(C)c1ccc(S(=O)(=O)Nc2cc(Cl)cnc2-c2nnc3n2CCNC3)cc1`, < 1 µM; that for `COCc1nnc(-c2ncc(Cl)cc2NS(=O)(=O)c2ccc(C(C)(C)C)cc2)n1C(C)C`, < 1 µM.
The result for `CC(C)(C)c1ccc(S(=O)(=O)Nc2cc(Cl)cnc2-c2nncn2[C@H]2CCCNC2)cc1` reads < 1 µM.
In the case of `Cn1cnnc1-c1ncc(Cl)cc1NS(=O)(=O)c1ccc(C(C)(C)C)cc1`, the half-inhibitory concentration (IC50) was < 1 µM.
The result for `Cc1cnc(-c2nncn2C2CCN(C)C2)c(NS(=O)(=O)c2ccc(C(C)(C)C)cc2)c1` (centres unmarked) reads < 1 µM; that for `COCc1nnc(-c2ncc(Cl)cc2NS(=O)(=O)c2ccc(C(C)(C)C)cc2)n1C1CCOCC1`, < 1 µM.
To `CCn1c(COC)nnc1-c1ncc(Cl)cc1NS(=O)(=O)c1ccc(C(C)(C)C)cc1` belongs < 1 µM.
To `CNC(=O)c1nnc(-c2ncc(Cl)cc2NS(=O)(=O)c2ccc(C(C)(C)C)cc2)n1C(C)C` belongs < 1 µM.
